Laboratory results reported in PubChem BioAssay AID1259411 (Chemical Carcinogenesis Research Information System (CCRIS), 2018).
Active and inactive are the calls of the source. The rule behind the calls is not given here.

Tested on: rodent carcinogenicity bioassays, tumor incidence
Assay: CCRIS carcinogenicity studies
How it was run: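 NCI-built, expert-reviewed records of carcinogenicity and related test outcomes (mutagenicity, tumor promotion/inhibition) compiled from published and report sources, historical span 1985-2011, not updated.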

CCCC(=O)CN(C)N=O
carcinogen call (Species: RAT, Strain/Sex: WISTAR/MALE, FEMALE, Route: SUBCUTANEOUS, Dose: 0, 75 MG/KG 1/WK FOR 6 WK TO ADULT ANIMALS (STUDY DURATION: LIFETIME), Tumor Site: Type of Lesion: ESOPHAGUS: PAPILLOMA, NASAL CAVITY: PAPILLOMA, SQUAMOUS CARCINOMA OR ADENOMA, SOFT TISSUE (INJECTION SITE): SARCOMA, THY, Tumor Site: Type of Lesion: ESOPHAGUS: PAPILLOMA, NASAL CAVITY: PAPILLOMA, SQUAMOUS CARCINOMA OR ADENOMA, SOFT TISSUE (INJECTION SITE): SARCOMA, THY): active; positive
carcinogen call (Species: RAT, Strain/Sex: WISTAR/MALE,FEMALE, Route: INTRAPERITONEAL, Dose: 0, 75 MG/KG 1/WK FOR 6 WK BEGINNING AT 52-61 DAYS OF AGE (STUDY DURATION: >35 WK), Tumor Site: Type of Lesion: ESOPHAGUS: PAPILLOMA, NASAL CAVITY: TUMOR, INJECTION SITE: SARCOMA, Tumor Site: Type of Lesion: ESOPHAGUS: PAPILLOMA, NASAL CAVITY: TUMOR, INJECTION SITE: SARCOMA): active; positive

CN=NCc1ccc(C(=O)NC(C)C)cc1
carcinogen call (Species: MOUSE, Strain/Sex: CDF1/MALE, Route: GAVAGE, Dose: 0, 300 MG/KG IN 0.01 ML OF 0.5% AQUEOUS SOLUTION OF SODIUM CARBOXYMETHYL CELLULOSE 1/WK FOR 4 WK THEN 0, 400 MG/KG 1/WK, Dose: 0, 300 MG/KG IN 0.01 ML OF 0.5% AQUEOUS SOLUTION OF SODIUM CARBOXYMETHYL CELLULOSE 1/WK FOR 4 WK THEN 0, 400 MG/KG 1/WK, Tumor Site: Type of Lesion: PULMONARY SYSTEM: TUMOR, KIDNEY: CYSTADENOMA): active; positive

ClCC1CO1 (stereo not drawn)
carcinogen call (Species: MOUSE, Route: DERMAL, Tumor Site: Type of Lesion: INTEGUMENTARY SYSTEM (SKIN)): active; positive
carcinogen call (Species: MOUSE, Route: SUBCUTANEOUS, Tumor Site: Type of Lesion: INJECTION SITE): active; positive
carcinogen call (Species: RAT, Strain/Sex: WISTAR/FEMALE, Route: GAVAGE, Dose: 0, 2, 10 MG/KG IN WATER 5 D/WK FOR 104 WK (STUDY DURATION: 24 MO), Dose: 0, 2, 10 MG/KG IN WATER 5 D/WK FOR 104 WK (STUDY DURATION: 24 MO), Tumor Site: Type of Lesion: FORESTOMACH: SQUAMOUS CELL CARCINOMA): active; positive
carcinogen call (Species: RAT, Strain/Sex: WISTAR/MALE, Route: GAVAGE, Dose: 0, 2, 10 MG/KG IN WATER 5 D/WK FOR 104 WK (STUDY DURATION: 24 MO), Dose: 0, 2, 10 MG/KG IN WATER 5 D/WK FOR 104 WK (STUDY DURATION: 24 MO), Tumor Site: Type of Lesion: FORESTOMACH: SQUAMOUS CELL CARCINOMA): active; positive

Cc1cc(Cc2ccc(N)c(C)c2)ccc1N
carcinogen call (Species: RAT, Route: ORAL, Tumor Site: Type of Lesion: LIVER): active; positive

CCCCCCCCS(=O)C(C)Cc1ccc2c(c1)OCO2 (stereo not drawn)
carcinogen call (Species: MOUSE, Strain/Sex: B6C3F1/FEMALE, Route: ORAL, Dose: 0, 295, 754 PPM IN DIET, TWA, Dose: 0, 295, 754 PPM IN DIET, TWA): inactive; negative
carcinogen call (Species: MOUSE, Strain/Sex: B6C3F1/MALE, Route: ORAL, Dose: 0, 350, 700 PPM IN DIET, Dose: 0, 350, 700 PPM IN DIET, Tumor Site: Type of Lesion: LIVER: HEPATOCELLULAR CARCINOMA): active; positive
carcinogen call (Species: RAT, Strain/Sex: F344/FEMALE, Route: ORAL, Dose: 0, 3000, 6000 PPM IN DIET, Dose: 0, 3000, 6000 PPM IN DIET): inactive; negative
carcinogen call (Species: RAT, Strain/Sex: F344/MALE, Route: ORAL, Dose: 0, 1500, 3000 PPM IN DIET, Dose: 0, 1500, 3000 PPM IN DIET): inactive; negative

CC/C(=C(\c1ccc(O)cc1)c1ccc(OCCN(C)C)cc1)c1ccccc1
carcinogen call (Species: RAT, Strain/Sex: SPRAGUE-DAWLEY/FEMALE, Route: DERMAL, Dose: 0, 20, 140, 1000 UG/KG/D FOR 101 WK (STUDY DURATION: 101 WK), Dose: 0, 20, 140, 1000 UG/KG/D FOR 101 WK (STUDY DURATION: 101 WK)): inactive; negative
